Data reported in patent US20210267944A1 (BioXcel Therapeutics, Inc., priority 2018, published 2021).
Structures can show the parent of a compound that is named as a salt. Where two headings read alike, the source gives them in different places.

Conditions: opioid withdrawal patients
From the text: The participants were continuously monitored by the site personnel, including blood pressure and heart rate, from the start of the infusion through resolution of sedation and/or any adverse effects on blood pressure or heart rate. An electrocardiogram was obtained at screening, pre-infusion and upon resolution of sedation, a predetermined reduction in COWS or return to baseline.

Question: Which results are given for `Cc1cccc([C@H](C)c2cnc[nH]2)c1C` [dexmedetomidine hydrochloride]?
Answer: Diastolic blood pressure Max (Day-1, 00:00 Hr): 110 mm of Hg; Diastolic blood pressure Mean ± SD (Day-1, 00:00 Hr): 83.81 ± 12.99 mm of Hg; Diastolic blood pressure Median (Day-1, 00:00 Hr): 82 mm of Hg; Diastolic blood pressure Min (Day-1, 00:00 Hr): 64 mm of Hg; Heart rate Max (Day-1, 00:00 Hr): 106 beats/minutes; Heart rate Mean ± SD (Day-1, 00:00 Hr): 69.9 ± 16.37 beats/minutes; Heart rate Median (Day-1, 00:00 Hr): 66 beats/minutes; Heart rate Min (Day-1, 00:00 Hr): 55 beats/minutes; Diastolic blood pressure Max (Day-1, 00:15 Hr): 96 mm of Hg; Diastolic blood pressure Mean ± SD (Day-1, 00:15 Hr): 78.09 ± 9.99 mm of Hg; Diastolic blood pressure Median (Day-1, 00:15 Hr): 76 mm of Hg; Diastolic blood pressure Min (Day-1, 00:15 Hr): 62 mm of Hg; Heart rate Max (Day-1, 00:15 Hr): 86 beats/minutes; Heart rate Mean ± SD (Day-1, 00:15 Hr): 66.36 ± 11.9 beats/minutes; Heart rate Median (Day-1, 00:15 Hr): 67 beats/minutes; Heart rate Min (Day-1, 00:15 Hr): 49 beats/minutes; Diastolic blood pressure Max (Day-1, 00:30 Hr): 86 mm of Hg; Diastolic blood pressure Mean ± SD (Day-1, 00:30 Hr): 70 ± 8.8 mm of Hg; Diastolic blood pressure Median (Day-1, 00:30 Hr): 68 mm of Hg; Diastolic blood pressure Min (Day-1, 00:30 Hr): 59 mm of Hg; Heart rate Max (Day-1, 00:30 Hr): 84 beats/minutes; Heart rate Mean ± SD (Day-1, 00:30 Hr): 66.88 ± 12.26 beats/minutes; Heart rate Median (Day-1, 00:30 Hr): 70 beats/minutes; Heart rate Min (Day-1, 00:30 Hr): 52 beats/minutes; Diastolic blood pressure Max (Day-1, 00:45 Hr): 86 mm of Hg; Diastolic blood pressure Mean ± SD (Day-1, 00:45 Hr): 74.5 ± 7.67 mm of Hg; Diastolic blood pressure Median (Day-1, 00:45 Hr): 76 mm of Hg; Diastolic blood pressure Min (Day-1, 00:45 Hr): 61 mm of Hg; Heart rate Max (Day-1, 00:45 Hr): 89 beats/minutes; Heart rate Mean ± SD (Day-1, 00:45 Hr): 68.83 ± 14.91 beats/minutes; Heart rate Median (Day-1, 00:45 Hr): 66 beats/minutes; Heart rate Min (Day-1, 00:45 Hr): 50 beats/minutes; Diastolic blood pressure Max (Day-1, 01:00 Hr): 77 mm of Hg; Diastolic blood pressure Mean ± SD (Day-1, 01:00 Hr): 71.4 ± 6.05 mm of Hg; Diastolic blood pressure Median (Day-1, 01:00 Hr): 72 mm of Hg; Diastolic blood pressure Min (Day-1, 01:00 Hr): 60 mm of Hg; Heart rate Max (Day-1, 01:00 Hr): 85 beats/minutes; Heart rate Mean ± SD (Day-1, 01:00 Hr): 69.6 ± 11.35 beats/minutes; Heart rate Median (Day-1, 01:00 Hr): 66 beats/minutes; Heart rate Min (Day-1, 01:00 Hr): 54 beats/minutes; Diastolic blood pressure Max (Day-1, 01:15 Hr): 82 mm of Hg; Diastolic blood pressure Mean ± SD (Day-1, 01:15 Hr): 72 ± 8.16 mm of Hg; Diastolic blood pressure Median (Day-1, 01:15 Hr): 72 mm of Hg; Diastolic blood pressure Min (Day-1, 01:15 Hr): 62 mm of Hg; Heart rate Max (Day-1, 01:15 Hr): 76 beats/minutes; Heart rate Mean ± SD (Day-1, 01:15 Hr): 72 ± 2.82 beats/minutes; Heart rate Median (Day-1, 01:15 Hr): 70 beats/minutes; Heart rate Min (Day-1, 01:15 Hr): 70 beats/minutes; Diastolic blood pressure Max (Day-1, 01:30 Hr): 66 mm of Hg; Diastolic blood pressure Mean ± SD (Day-1, 01:30 Hr): 61 ± 5 mm of Hg; Diastolic blood pressure Median (Day-1, 01:30 Hr): 61 mm of Hg; Diastolic blood pressure Min (Day-1, 01:30 Hr): 56 mm of Hg; Heart rate Max (Day-1, 01:30 Hr): 61 beats/minutes; Heart rate Mean ± SD (Day-1, 01:30 Hr): 60.5 ± 0.5 beats/minutes; Heart rate Median (Day-1, 01:30 Hr): 60.5 beats/minutes; Heart rate Min (Day-1, 01:30 Hr): 60 beats/minutes; Diastolic blood pressure Max (Day-1, 30 min. post Infusion): 86 mm of Hg; Diastolic blood pressure Mean ± SD (Day-1, 30 min. post Infusion): 75.27 ± 9.22 mm of Hg; Diastolic blood pressure Median (Day-1, 30 min. post Infusion): 73 mm of Hg; Diastolic blood pressure Min (Day-1, 30 min. post Infusion): 60 mm of Hg; Heart rate Max (Day-1, 30 min. post Infusion): 99 beats/minutes; Heart rate Mean ± SD (Day-1, 30 min. post Infusion): 65.18 ± 14.03 beats/minutes; Heart rate Median (Day-1, 30 min. post Infusion): 62 beats/minutes; Heart rate Min (Day-1, 30 min. post Infusion): 50 beats/minutes; Diastolic blood pressure Max (Day-1, Screening): 108 mm of Hg; Diastolic blood pressure Mean ± SD (Day-1, Screening): 84.18 ± 13.13 mm of Hg; Diastolic blood pressure Median (Day-1, Screening): 81 mm of Hg; Diastolic blood pressure Min (Day-1, Screening): 63 mm of Hg; Heart rate Max (Day-1, Screening): 108 beats/minutes; Heart rate Mean ± SD (Day-1, Screening): 68.54 ± 15.32 beats/minutes; Heart rate Median (Day-1, Screening): 66 beats/minutes; Heart rate Min (Day-1, Screening): 55 beats/minutes; Diastolic blood pressure Max (Day-2, 00:00 Hr): 88 mm of Hg; Diastolic blood pressure Mean ± SD (Day-2, 00:00 Hr): 78.4 ± 7.86 mm of Hg; Diastolic blood pressure Median (Day-2, 00:00 Hr): 79 mm of Hg; Diastolic blood pressure Min (Day-2, 00:00 Hr): 69 mm of Hg; Heart rate Max (Day-2, 00:00 Hr): 94 beats/minutes; Heart rate Mean ± SD (Day-2, 00:00 Hr): 68.8 ± 13.94 beats/minutes; Heart rate Median (Day-2, 00:00 Hr): 63 beats/minutes; Heart rate Min (Day-2, 00:00 Hr): 55 beats/minutes; Diastolic blood pressure Max (Day-2, 00:15 Hr): 90 mm of Hg; Diastolic blood pressure Mean ± SD (Day-2, 00:15 Hr): 77.4 ± 9.91 mm of Hg; Diastolic blood pressure Median (Day-2, 00:15 Hr): 76 mm of Hg; Diastolic blood pressure Min (Day-2, 00:15 Hr): 62 mm of Hg; Heart rate Max (Day-2, 00:15 Hr): 85 beats/minutes; Heart rate Mean ± SD (Day-2, 00:15 Hr): 67.4 ± 12.35 beats/minutes; Heart rate Median (Day-2, 00:15 Hr): 61 beats/minutes; Heart rate Min (Day-2, 00:15 Hr): 53 beats/minutes; Diastolic blood pressure Max (Day-2, 00:30 Hr): 84 mm of Hg; Diastolic blood pressure Mean ± SD (Day-2, 00:30 Hr): 73.4 ± 8.54 mm of Hg; Diastolic blood pressure Median (Day-2, 00:30 Hr): 71 mm of Hg; Diastolic blood pressure Min (Day-2, 00:30 Hr): 61 mm of Hg; Heart rate Max (Day-2, 00:30 Hr): 93 beats/minutes; Heart rate Mean ± SD (Day-2, 00:30 Hr): 68.2 ± 5.54 beats/minutes; Heart rate Median (Day-2, 00:30 Hr): 58 beats/minutes; Heart rate Min (Day-2, 00:30 Hr): 54 beats/minutes; Diastolic blood pressure Max (Day-2, 00:45 Hr): 86 mm of Hg; Diastolic blood pressure Mean ± SD (Day-2, 00:45 Hr): 79 ± 7.68 mm of Hg; Diastolic blood pressure Median (Day-2, 00:45 Hr): 82 mm of Hg; Diastolic blood pressure Min (Day-2, 00:45 Hr): 66 mm of Hg; Heart rate Max (Day-2, 00:45 Hr): 97 beats/minutes; Heart rate Mean ± SD (Day-2, 00:45 Hr): 69 ± 16.80 beats/minutes; Heart rate Median (Day-2, 00:45 Hr): 63 beats/minutes; Heart rate Min (Day-2, 00:45 Hr): 53 beats/minutes; Diastolic blood pressure Max (Day-2, 01:00 Hr): 87 mm of Hg; Diastolic blood pressure Mean ± SD (Day-2, 01:00 Hr): 79.33 ± 7.58 mm of Hg; Diastolic blood pressure Median (Day-2, 01:00 Hr): 82 mm of Hg; Diastolic blood pressure Min (Day-2, 01:00 Hr): 69 mm of Hg; Heart rate Max (Day-2, 01:00 Hr): 94 beats/minutes; Heart rate Mean ± SD (Day-2, 01:00 Hr): 72.66 ± 17.15 beats/minutes; Heart rate Median (Day-2, 01:00 Hr): 72 beats/minutes; Heart rate Min (Day-2, 01:00 Hr): 52 beats/minutes; Diastolic blood pressure Max (Day-2, 01:15 Hr): 101 mm of Hg
